Results reported in patent publication US8324383B2, “Methods of making polymorphs of benzoate salt of 2-[[6-[(3R)-3-amino-1-piperidinyl]-3,4-dihydro-3-methyl-2,4-dioxo-1(2H)-pyrimidinyl]methyl]-benzonitrile” (Takeda Pharmaceutical Company Limited, priority 2006, dated 2012).
“Also recorded” adds a separate entry of the source. Where a name gives a salt, the structure may show the parent alone. Read-outs that look alike come from different tables or passages of the source. Blank lines part the entries; values can stand above or below the compound they belong to.

Legend:
Assay type in all cases: physicochemical
[1] = Stress studies (relative humidity / temperature), solid form by XRPD; details: for Result (solid form by XRPD after stress): glassy material
Method: Vapor Stress (VS) Experiments: Form A was dispensed into a small vial, which was placed, uncapped, in a larger vial containing a diffusing solvent. The larger vial was sealed and stored at ambient temperature. Samples were also stressed in ovens at elevated temperatures and under different relative humidity conditions.
X-ray powder diffraction analyses were performed using a Shimadzu XRD-6000 X-ray powder diffractometer using Cu Kα radiation. The instrument is equipped with a long fine focus X-ray tube. The tube voltage and amperage were set to 40 kV and 40 mA, respectively. The divergence and scattering slits were set at 1° and the receiving slit was set at 0.15 mm. Diffracted radiation was detected by a NaI scintillation detector. A θ-2θ continuous scan at 3°/min (0.4 sec/0.02° step) from 2.5 to 40 °2θ was used. A silicon standard was analyzed to check the instrument alignment. Data were collected and analyzed using XRD-6000 v. 4.1. Samples were prepared for analysis by placing them in an aluminum holder with silicon insert.

[2] = Thermal analysis (DSC, TGA, melting point) - thermal stability; details: solid phase
Method: Differential scanning calorimetry was performed using a TA Instruments differential scanning calorimeter 2920. The sample was placed into an aluminum DSC pan, and the weight accurately recorded. The pan was covered with a lid and then crimped. The sample cell was equilibrated at ambient temperature and heated under a nitrogen purge at a rate of 10° C./min, up to a final temperature of 350° C. Indium metal was used as the calibration standard. Reported temperatures are at the transition maxima.
Thermogravimetric analyses were performed using a TA Instruments 2950 thermogravimetric analyzer. Each sample was placed in an aluminum sample pan and inserted into the TG furnace. The furnace was first equilibrated at ambient temperature, then heated under nitrogen at a rate of 10° C./min, up to a final temperature of 350° C. Nickel and Alumel™ were used as the calibration standards.
Hot stage microscopy was performed using a Linkam hot stage mounted on a Leica DM LP microscope. Samples were observed using a 20× objective with a lambda plate with crossed polarizers. Samples were sandwiched between two coverslips and visually observed as the stage was heated. Images were captured using a SPOT Insight™ color digital camera with SPOT Software v. 3.5.8. The hot stage was calibrated using sulfapyridine and vanillin USP melting point standards.

[3] = Solubility estimates in test solvents (aliquot addition, visual inspection); details: room temperature, approximate
Method: A weighed sample of Compound I was treated with aliquots of the test solvent at room temperature. The mixture was sonicated between aliquot additions to facilitate dissolution. Complete dissolution of the test material was determined by visual inspection. Solubilities were estimated from these experiments based on the total solvent used to provide complete dissolution. The actual solubility may be greater than those calculated because of the use of solvent aliquots that were too large or due to a slow rate of dissolution. […] If complete dissolution was achieved as a result of only one aliquot addition, the solubility is expressed as “greater than.”

[4] = Moisture sorption/desorption analysis (VTI SGA-100); details: for moisture sorption behaviour in words: moisture sorption/desorption analysis; for solid form of the sample after moisture sorption/desorption (XRPD): post moisture sorption/desorption sample
Method: Moisture sorption/desorption data were collected on a VTI SGA-100 Vapor Sorption Analyzer. Sorption and desorption data were collected over a range of 5% to 95% relative humidity (RH) at 10% RH intervals under a nitrogen purge. Samples were not dried prior to analysis. Equilibrium criteria used for analysis were less than 0.0100% weight change in 5 minutes, with a maximum equilibration time of 3 hours if the weight criterion was not met. Data were not corrected for the initial moisture content of the samples. NaCl and PVP were used as calibration standards.

- Result (solid form by XRPD after stress) ([1]; stress 79% RH/60° C., 1 hr): form A
Structure (SMILES): Cn1c(=O)cc(N2CCC[C@@H](N)C2)n(Cc2ccccc2C#N)c1=O.O=C(O)c1ccccc1 [Compound 1966-27-01]

- Result (solid form by XRPD after stress) ([1]; stress 79% RH/60° C., 3 hrs): form A
Structure (SMILES): Cn1c(=O)cc(N2CCC[C@@H](N)C2)n(Cc2ccccc2C#N)c1=O.O=C(O)c1ccccc1 [Compound 1966-27-02]

Second part, the compound before the results:

Structure (SMILES): Cn1c(=O)cc(N2CCC[C@@H](N)C2)n(Cc2ccccc2C#N)c1=O.O=C(O)c1ccccc1 [Compound 1924-83-05]
- Result (solid form by XRPD after stress) ([1]; stress 40° C., 9 days): form A

Structure (SMILES): Cn1c(=O)cc(N2CCC[C@@H](N)C2)n(Cc2ccccc2C#N)c1=O.O=C(O)c1ccccc1 [Compound 1924-83-06]
- Result (solid form by XRPD after stress) ([1]; stress 79% RH/40° C., 9 days): form A

Structure (SMILES): Cn1c(=O)cc(N2CCC[C@@H](N)C2)n(Cc2ccccc2C#N)c1=O [Form A, benzoate salt of 2-[[6-[(3R)-3-amino-1-piperidinyl]-3,4-dihydro-3-methyl-2,4-dioxo-1(2H)-pyrimidinyl]methyl]-benzonitrile]
- phase change upon RH stress (XRPD) ([1]; various RH conditions at room temperature, several weeks): none of these samples had undergone a phase change
- thermally stable (temperature) [2]: above 172 °C
- solubility ([3]; ethanol, organic solvent or mixture, thermodynamic from solid, solvent EtOH, read-out: Solubility): < 3000 µg/mL
- solubility ([3]; methanol, organic solvent or mixture, thermodynamic from solid, solvent MeOH, read-out: Solubility): 13000 µg/mL
- solubility ([3]; organic solvent or mixture, thermodynamic from solid, solvent CAN, read-out: Solubility): < 1000 µg/mL
- solubility ([3]; organic solvent or mixture, thermodynamic from solid, solvent CH2Cl2, read-out: Solubility): < 3000 µg/mL
- solubility ([3]; organic solvent or mixture, thermodynamic from solid, solvent DMF, read-out: Solubility): 6000 µg/mL
- solubility ([3]; organic solvent or mixture, thermodynamic from solid, solvent EtOAc, read-out: Solubility): < 3000 µg/mL
- solubility ([3]; organic solvent or mixture, thermodynamic from solid, solvent IPA, read-out: Solubility): < 1000 µg/mL
- solubility ([3]; organic solvent or mixture, thermodynamic from solid, solvent MEK, read-out: Solubility): 3000 µg/mL
- solubility ([3]; organic solvent or mixture, thermodynamic from solid, solvent MIBK, read-out: Solubility): < 3000 µg/mL
- solubility ([3]; organic solvent or mixture, thermodynamic from solid, solvent THF, read-out: Solubility): < 1000 µg/mL
- solubility ([3]; organic solvent or mixture, thermodynamic from solid, solvent acetone, read-out: Solubility): < 3000 µg/mL
- solubility ([3]; organic solvent or mixture, thermodynamic from solid, solvent dioxane, read-out: Solubility): < 1000 µg/mL
- solubility ([3]; solvent CH2Cl2, listed as Compound I Form A): <3000 µg/mL
- solubility ([3]; solvent EtOAc, listed as Compound I Form A): <3000 µg/mL
- solubility ([3]; solvent EtOH, listed as Compound I Form A): <3000 µg/mL
- solubility ([3]; solvent MIBK, listed as Compound I Form A): <3000 µg/mL
- solubility ([3]; solvent acetone, listed as Compound I Form A): <3000 µg/mL
- solubility ([3]; thermodynamic from solid, solvent water, read-out: Solubility): 8000 µg/mL
- Weight chg (%) ([4]; RH 5.18%, 25.20 °C, 14.1 min): 0.002%
- weight loss ([4]; between 9% and 95% RH): about 0.05%
- Weight chg (%) ([4]; desorption, RH 4.82%, 25.20 °C, 163.7 min): −0.004%
- Weight chg (%) ([4]; desorption, RH 14.97%, 25.21 °C, 153.7 min): 0.032%
- Weight chg (%) ([4]; desorption, RH 24.96%, 25.22 °C, 146.7 min): 0.035%
- Weight chg (%) ([4]; desorption, RH 34.97%, 25.21 °C, 139.7 min): 0.008%
- Weight chg (%) ([4]; desorption, RH 45.01%, 25.22 °C, 131.7 min): 0.012%
- Weight chg (%) ([4]; desorption, RH 55.13%, 25.21 °C, 123.7 min): 0.014%
- Weight chg (%) ([4]; desorption, RH 65.04%, 25.21 °C, 114.7 min): 0.016%
- Weight chg (%) ([4]; desorption, RH 75.06%, 25.21 °C, 105.7 min): 0.017%
- Weight chg (%) ([4]; desorption, RH 85.20%, 25.21 °C, 97.0 min): 0.019%
- initial weight gain ([4]; from ambient conditions to 55% RH): approximately 0.035%
- moisture sorption behaviour in words [4]: variable hydrate
- solid form of the sample after moisture sorption/desorption (XRPD) [4]: form A
- Weight chg (%) ([4]; sorption, RH 14.96%, 25.22 °C, 21.1 min): 0.001%
- Weight chg (%) ([4]; sorption, RH 24.97%, 25.20 °C, 28.2 min): 0.001%
- Weight chg (%) ([4]; sorption, RH 35.05%, 25.20 °C, 35.2 min): 0.002%
- Weight chg (%) ([4]; sorption, RH 44.89%, 25.20 °C, 42.2 min): 0.004%
- Weight chg (%) ([4]; sorption, RH 54.85%, 25.19 °C, 51.2 min): 0.035%
- Weight chg (%) ([4]; sorption, RH 64.93%, 25.21 °C, 60.2 min): 0.039%
- Weight chg (%) ([4]; sorption, RH 74.86%, 25.20 °C, 69.2 min): 0.041%
- Weight chg (%) ([4]; sorption, RH 84.87%, 25.21 °C, 78.2 min): 0.045%
- Weight chg (%) ([4]; sorption, RH 94.56%, 25.21 °C, 87.2 min): 0.049%
- Weight chg (%) ([4]; start, RH 9.14%, 25.20 °C, 0.1 min): 0.000%

Structure (SMILES): Cn1c(=O)cc(N2CCC[C@@H](N)C2)n(Cc2ccccc2C#N)c1=O [amorphous Form 1, benzoate salt of 2-[[6-[(3R)-3-amino-1-piperidinyl]-3,4-dihydro-3-methyl-2,4-dioxo-1(2H)-pyrimidinyl]methyl]-benzonitrile]
- Weight chg (%) ([4]; Sample RH 5.25, 25.00 °C, 151.0 min): −0.953%
- weight gain ([4]; between 5% and 95% RH): about 6.5%
- weight loss ([4]; between 85% and 95% RH): about 5%
- Weight chg (%) ([4]; desorption, Sample RH 5.06, 24.99 °C, 2238.3 min): −2.007%
- Weight chg (%) ([4]; desorption, Sample RH 15.16, 24.99 °C, 2221.4 min): −1.980%
- Weight chg (%) ([4]; desorption, Sample RH 24.87, 24.99 °C, 2199.9 min): −1.946%
- Weight chg (%) ([4]; desorption, Sample RH 34.87, 24.99 °C, 2081.7 min): −1.737%
- Weight chg (%) ([4]; desorption, Sample RH 45.08, 25.01 °C, 1894.1 min): −1.208%
- Weight chg (%) ([4]; desorption, Sample RH 55.16, 25.00 °C, 1706.6 min): −0.421%
- Weight chg (%) ([4]; desorption, Sample RH 65.12, 24.98 °C, 1517.0 min): 0.655%
- Weight chg (%) ([4]; desorption, Sample RH 75.25, 24.98 °C, 1327.5 min): 1.908%
- Weight chg (%) ([4]; desorption, Sample RH 85.49, 24.98 °C, 1139.9 min): 3.348%
- initial weight loss ([4]; from ambient conditions to 5% RH): approximately 1%
- moisture sorption behaviour in words [4]: very hygroscopic
- solid form of the sample after moisture sorption/desorption (XRPD) [4]: matched form A; also recorded: tentatively identified as containing form A
- Weight chg (%) ([4]; sorption, Sample RH 14.81, 25.00 °C, 197.3 min): −0.456%
- Weight chg (%) ([4]; sorption, Sample RH 24.80, 24.99 °C, 253.1 min): 0.025%
- Weight chg (%) ([4]; sorption, Sample RH 34.93, 24.98 °C, 329.5 min): 0.569%
- Weight chg (%) ([4]; sorption, Sample RH 44.84, 24.99 °C, 508.3 min): 1.669%
- Weight chg (%) ([4]; sorption, Sample RH 54.90, 24.98 °C, 603.1 min): 3.680%
- Weight chg (%) ([4]; sorption, Sample RH 64.85, 24.97 °C, 655.1 min): 5.782%
- Weight chg (%) ([4]; sorption, Sample RH 74.54, 24.98 °C, 723.7 min): 8.432%
- Weight chg (%) ([4]; sorption, Sample RH 84.54, 24.98 °C, 764.6 min): 10.125%
- Weight chg (%) ([4]; sorption, Sample RH 94.62, 24.95 °C, 952.3 min): 5.474%
- Weight chg (%) ([4]; start, Sample RH 53.89, 24.98 °C, 0.1 min): 0.000%
- weight gain ([4]; under 85% RH): 10%
